# Measured values as given in US10167507B2, “Metabolic diseases-related odorant receptor genes and use thereof” (INDUSTRY-ACADEMIC COOPERATION FOUNDATION, YONSEI UNIVERSITY, priority 2010, dated 2019).
# Columns and labels:
# [1] = test system: olfactory receptors in visceral fat tissue; experiment: OligoDNA microarray, visceral fat tissue of HFD mice fed odor components; assay type: in vivo, mouse
# Protocol: DNA microarry analysis using RNAs of visceral fat and liver tissue was conducted by GENOCHECK (CO., LTD.). RNA samples were pooled from 10 mice in each experimental group and subjected to microarray experiments in triplicate for the test of reproducibility. NimbleGen Mouse Whole Oligo 12-plex chip used in this experiment was prepared by triplicating 42,576 genes using Mouse Genome Build 8 as database. In NimbleGen mouse Whole Oligo 12-plex chip, 137,090 spots excluded control group gene were spotted by 16 μm×16 μm size in 17.4 mm×13 mm size. 42,576 oligo included 137,145 genes which are known their functions and 5,431 transcripts and EST sequences which are unknown their functions. 10-50 μg of total RNA was added in oligo-dT primer, reverse transcriptase, dNTP, Cy3-dUTP and Cy5-dUTP, and reverse-transcripted according to the kit manufacturer's recommendations. The resultant was purified using cartridge, dried and dissolved in hybridization buffer solution (30 μL). The microarray was placed in hybridization cassette, heated at 95-100° C. for 5 min, mixed independently to each of RNA labeled with Cy3 and Cy5, and hybridized at 45° C. for 18 hrs. The slide was washed twice in solution containing 1×SSC and 0.1% SDS for 5 min, washed in 1×SSC for 5 min and dried to analyze.
# [2] = test system: olfactory receptors in liver tissue; experiment: OligoDNA microarray, liver tissue of HFD mice fed odor components; assay type: in vivo, mouse
# Description: (§1) The obesity-inducing control diet used in the test was high-fat diet (HFD: 40% fat calorie, 17 g lard+3% corn oil/100 g diet). Diets supplemented with an odor component had the same composition as HFD, except that each of various types of odor components (indol-3-carbinol, oleuropein, cedryl acetate, α-cedrene and piperine) having anti-obesity efficacy was contained in 0.02-0.05% concentration. Indo)-3-carbinol, oleuropein, cedryl acetate, a-cedrene and piperine were purchased from Sigma-Aldrich.
# (§2) After adding Trizol agent to visceral fat or liver tissue, the mixture was homogenized and centrifuged at 12,000×g for 10 min at 4° C. The supernatant was transferred to a new tube to remove fat layer. Then, 200 μl of chloroform was added to the tube, followed by vortexing. The same procedure was repeated twice and then the supernatant was transferred to a new tube, followed by addition of isopropanol and the supernatant at 1:1 ratio. The mixture was vigorously shaken 10 times and then incubated for 10 min at room temperature, followed by centrifugation at 12,000×g for 10 min at 4° C. to remove the supernatant. After adding 1 mL of 70% ethanol to the remaining pellet, it was centrifuged at 7,500×g for 5 min at 4° C. After removing the ethanol, the RNA pellet contained in the tube was dried for 5 min at 4° C. and dissolved in nuclease-free water. The RNA sample concentration was measured at a wavelength of 260 nm and 280 nm using a UV/VIS spectrophotometer (Beckman coulter, DU730) and the integrity of RNA sample was verified by agarose gel electrophoresis.
# (§3) DNA microarry analysis using RNAs of visceral fat and liver tissue was conducted by GENOCHECK (CO., LTD.). RNA samples were pooled from 10 mice in each experimental group and subjected to microarray experiments in triplicate for the test of reproducibility. NimbleGen Mouse Whole Oligo 12-plex chip used in this experiment was prepared by triplicating 42,576 genes using Mouse Genome Build 8 as database. In NimbleGen mouse Whole Oligo 12-plex chip, 137,090 spots excluded control group gene were spotted by 16 μm×16 μm size in 17.4 mm×13 mm size. 42,576 oligo included […] genes which are known their functions and 5,431 transcripts and EST sequences which are unknown their functions. 10-50 μg of total RNA was added in oligo-dT primer, reverse transcriptase, dNTP, Cy3-dUTP and Cy5-dUTP, and reverse-transcripted according to the kit manufacturer's recommendations. The resultant was purified using cartridge, dried and dissolved in hybridization buffer solution (30 μL). The microarray was placed in hybridization cassette, heated at 95-100° C. for 5 min, mixed independently to each of RNA labeled with Cy3 and Cy5, and hybridized at 45° C. for 18 hrs. The slide was washed twice in solution containing 1×SSC and 0.1% SDS for 5 min, washed in 1×SSC for 5 min and dried to analyze.
# (§4) The profile for olfactory receptors in which the expression was regulated by more than 2-fold change due to intake of odor components at each tissue was shown in Tables 5. As a result, it was determined that various types of odor components having anti-obesity efficacy regulated a plurality of olfactory receptors in peripheral tissues.
# [3] = test system: obesity and metabolic diseases-related genes in visceral fat tissue; experiment: RT-PCR of obesity and metabolic diseases-related genes, visceral fat tissue; assay type: in vivo, mouse; details: odor component-supplemented group to the HFD control group
# Protocol: After adding 1 mL of Trizol agent (Invitrogen, USA) per 0.1 g of visceral fat or liver tissues, the mixture was homogenized and centrifuged at 12,000×g for 10 min at 4° C. The supernatant was transferred to a new tube and 200 μl of chloroform was added to the tube, followed by vortexing. The same procedure was repeated twice and then the supernatant was transferred to a new tube, followed by addition of isopropanol and the supernatant at 1:1 ratio. The mixture was vigorously shaken 10 times and then incubated for 10 min at room temperature, followed by centrifugation at 12,000×g for 10 min at 4° C. to remove the supernatant. After adding 1 mL of 70% ethanol to the remaining pellet, it was centrifuged at 7,500×g for 5 min at 4° C. After removing the ethanol, the RNA pellet contained in the tube was dried for 5 min at 4° C. and dissolved in nuclease-free water. The RNA sample concentration was measured at a wavelength of 260 nm and 280 nm using a UV/VIS spectrophotometer (Beckman coulter, DU730) and the integrity of RNA sample was verified by agarose gel electrophoresis. The RNA sample obtained from the visceral fat or liver tissues was trasnscribed using oligo dT primer and reverse transcriptase (GIBCO BRL, Gaithersburg, Md., USA) to synthesize cDNA. The PCR amplification was performed using the cDNA as templates and primers complementary to cDNA [NT] flanking sequence. 1 μl of the amplified products were resolved on agarose gel electrophoresis to verify DNA band.
# [4] = test system: HSL (hormone sensitive lipase); experiment: Western blotting, protein phosphorylation of HSL; assay type: in vivo, mouse
# Protocol: (§5) A certain amount of visceral fat or liver tissues in mortar was homogenized with liquid nitrogen and cell lysis buffer. The mixture was transferred to a new tube, followed by vortexing. After centrifugation at 13,000×g for 20 min at 4° C., the middle layer of the tube was obtained and proteins were quantified by Bradford method. 50 μg of protein was electrophorized to SDS polyacrylamide gel, followed by electroblotting to PVDF hyper film. The protein was reacted using an appropriate antibody for the protein and detected by ECL, whereby insulin resistance, adipocyte differentiation, lipid metabolism or energy consumption-related mechanism of phytochemical components was investigated in the protein level.
# (§6) In order to verify this, protein phosphorylations of HSL (hormone sensitive lipase), CREB (cAMP-responsive element binding protein) and AKT (v-akt murine thymoma viral oncogene) were evaluated by western blotting analysis.
# [5] = test system: AKT (v-akt murine thymoma viral oncogene); experiment: Western blotting, protein phosphorylation of AKT; assay type: in vivo, mouse
# Protocol: as §5, §6
# [6] = test system: olfactory receptors in visceral fat and liver tissues; experiment: OligoDNA microarray, visceral fat and liver tissues of HFD mice fed odor components (tissue not separated in text); assay type: in vivo; details: supplemented to mouse fed high-fat diet for 10 weeks
# Description: as §1, §2, §3, §4
# [7] = test system: CREB (cAMP-responsive element binding protein); experiment: Western blotting, protein phosphorylation of CREB; assay type: in vivo, mouse
# Protocol: as §5, §6
# [8] = supplemented to HFD-fed mouse 10 weeks
# [9] = odor component-supplemented group to the HFD control group
# [10] = western blotting, compared to the HFD control group
smiles,measurement,setting,value
OCc1c[nH]c2ccccc12 [Indole-3 carbinol],Olfr380 expression fold change to HFD group,[1]; [8],2.20
same,Olfr909 expression fold change to HFD group,[1]; [8],3.45
same,Olfr972 expression fold change to HFD group,[1]; [8],0.43
same,Olfr1093 expression fold change to HFD group,[1]; [8],0.42
same,Olfr1165 expression fold change to HFD group,[1]; [8],0.39
same,Olfr1462 expression fold change to HFD group,[1]; [8],2.26
same,Olfr16 expression fold change to HFD group,[2]; [8],0.47
same,Olfr116 expression fold change to HFD group,[2]; [8],2.12
same,Olfr178 expression fold change to HFD group,[2]; [8],2.06
same,Olfr196 expression fold change to HFD group,[2]; [8],0.45
same,Olfr259 expression fold change to HFD group,[2]; [8],0.50
same,Olfr290 expression fold change to HFD group,[2]; [8],2.11
same,Olfr466 expression fold change to HFD group,[2]; [8],0.49
same,Olfr686 expression fold change to HFD group,[2]; [8],0.35
same,Olfr1045 expression fold change to HFD group,[2]; [8],0.45
same,Olfr1153 expression fold change to HFD group,[2]; [8],2.82
same,Olfr1216 expression fold change to HFD group,[2]; [8],0.41
same,Olfr1329 expression fold change to HFD group,[2]; [8],0.48
same,Olfr1337 expression fold change to HFD group,[2]; [8],0.49
CC(=O)O[C@]1(C)CC[C@@]23C[C@@H]1C(C)(C)[C@@H]2CC[C@H]3C [cedryl acetate],"C/EBPα gene expression, decrease (change rate)",[3],36% decrease
same,"CPT1 gene expression, increase (change rate)",[3],47% increase^
same,"FAS gene expression, decrease (change rate)",[3],43% decrease
same,"IL-6 gene expression, decrease (change rate)",[3],74% decrease
same,"PGC1α gene expression, increase (change rate)",[3],57% increase^
same,"PPARγ2 gene expression, decrease (change rate)",[3],25% decrease
same,"SIRT1 gene expression, increase (change rate)",[3],650% increase ^
same,"TNFα gene expression, decrease (change rate)",[3],99% decrease
same,"UCP1 gene expression, increase (change rate)",[3],899% increase ^
same,"UCP3 gene expression, increase (change rate)",[3],65% increase^
same,"aP2 gene expression, decrease (change rate)",[3],33% decrease
same,"HSL phosphorylation, increase (change rate)",[4]; [9],46% increase
same,phosphorylation of HSL,[4]; [10],significantly increased
same,"AKT phosphorylation, increase (change rate)",[5]; [9],33% increase
same,phosphorylation of AKT,[5]; [10],significantly increased
same,expression of olfactory receptor 290,[1],increased
same,expression of olfactory receptor 341,[1],decreased
same,expression of olfactory receptor 380,[1],increased
same,expression of olfactory receptor 1104,[1],increased
same,expression of olfactory receptor 1165,[1],decreased
same,Olfr290 expression fold change to HFD group,[1]; [8],2.40
same,Olfr341 expression fold change to HFD group,[1]; [8],0.32
same,Olfr380 expression fold change to HFD group,[1]; [8],2.14
same,Olfr417 expression fold change to HFD group,[1]; [8],0.42
same,Olfr618 expression fold change to HFD group,[1]; [8],0.43
same,Olfr663 expression fold change to HFD group,[1]; [8],2.04
same,Olfr1058 expression fold change to HFD group,[1]; [8],2.18
same,Olfr1104 expression fold change to HFD group,[1]; [8],3.22
same,Olfr1123 expression fold change to HFD group,[1]; [8],2.64
same,Olfr1125 expression fold change to HFD group,[1]; [8],2.07
same,Olfr1136 expression fold change to HFD group,[1]; [8],0.43
same,Olfr1157 expression fold change to HFD group,[1]; [8],0.46
same,Olfr1165 expression fold change to HFD group,[1]; [8],0.36
same,Olfr1442 expression fold change to HFD group,[1]; [8],2.18
same,expression of olfactory receptor 38 increased,[6],more than 2 fold change
same,expression of olfactory receptor 77 decreased,[6],more than 2 fold change
same,expression of olfactory receptor 275 increased,[6],more than 2 fold change
same,expression of olfactory receptor 290 increased,[6],more than 2 fold change
same,expression of olfactory receptor 305 increased,[6],more than 2 fold change
same,expression of olfactory receptor 341 decreased,[6],more than 2 fold change
same,expression of olfactory receptor 380 increased,[6],more than 2 fold change
same,expression of olfactory receptor 417 decreased,[6],more than 2 fold change
same,expression of olfactory receptor 618 decreased,[6],more than 2 fold change
same,expression of olfactory receptor 663 increased,[6],more than 2 fold change
same,expression of olfactory receptor 878 increased,[6],more than 2 fold change
same,expression of olfactory receptor 1058 increased,[6],more than 2 fold change
same,expression of olfactory receptor 1104 increased,[6],more than 2 fold change
same,expression of olfactory receptor 1123 increased,[6],more than 2 fold change
same,expression of olfactory receptor 1125 increased,[6],more than 2 fold change
same,expression of olfactory receptor 1136 decreased,[6],more than 2 fold change
same,expression of olfactory receptor 1157 decreased,[6],more than 2 fold change
same,expression of olfactory receptor 1165 decreased,[6],more than 2 fold change
same,expression of olfactory receptor 1442 increased,[6],more than 2 fold change
same,"CREB phosphorylation, increase (change rate)",[7]; [9],39% increase
same,phosphorylation of CREB,[7]; [10],significantly increased
same,expression of olfactory receptor 38,[2],increased
same,expression of olfactory receptor 77,[2],decreased
same,expression of olfactory receptor 275,[2],increased
same,expression of olfactory receptor 878,[2],increased
same,Olfr38 expression fold change to HFD group,[2]; [8],2.39
same,Olfr77 expression fold change to HFD group,[2]; [8],0.5
same,Olfr275 expression fold change to HFD group,[2]; [8],2.64
same,Olfr305 expression fold change to HFD group,[2]; [8],2.21
same,Olfr878 expression fold change to HFD group,[2]; [8],2.76
same,Olfr77 expression fold change to HFD group,"[2]; supplemented to HFD-fed mouse 10 weeks, listed as Cedryl acetate",0.50
CC1=CC[C@@]23C[C@@H]1C(C)(C)[C@@H]2CC[C@H]3C [α-cedrene],expression of olfactory receptor 38 increased,[6],more than 2 fold change
same,expression of olfactory receptor 878 increased,[6],more than 2 fold change
same,expression of olfactory receptor 1045 decreased,[6],more than 2 fold change
same,expression of olfactory receptor 1222 increased,[6],more than 2 fold change
same,expression of olfactory receptor 38,[2],increased
same,expression of olfactory receptor 878,[2],increased
same,expression of olfactory receptor 1045,[2],decreased
same,Olfr38 expression fold change to HFD group,[2]; [8],3.83
same,Olfr878 expression fold change to HFD group,[2]; [8],5.87
same,Olfr1045 expression fold change to HFD group,[2]; [8],0.43
same,Olfr1222 expression fold change to HFD group,[2]; [8],2.15
